Experimental data published in patent publication US20140113958A1, “HCV Combination Therapy” (priority 2011, published 2014).
Several values for one entry are separate records, joined by “and”; a condition that tells them apart may be missing. Equal values may be shown once. Entries after “also recorded” stand apart in the source; their conditions may differ. Read-outs that look alike come from different tables or passages of the source.

Experiments:
[1] = test system: HCV genotype Ib replicon (I389luc-ubi-neo/NS3-3′/ET) in Huh-luc/neo-ET cells; type: cell-based
Method: (§1) The anti-viral efficacy and cellular toxicity of non-transfected antimiR oligonucleotide in combination with approved and experimental anti-HCV therapeutics (e.g. NM283, 2′-C-methylcytidine, and/or VX-222) (or other NS5B polymerase inhibitors) was determined in the reporter cell line Huh-luc/neo-ET. This cell line harbors the persistently replicating I389luc-ubi-neo/NS3-3′/ET replicon containing the firefly luciferase gene-ubiquitin-neomycin phosphotransferase fusion protein and EMCV IRES driven NS3-5B HCV coding sequences containing the ET tissue culture adaptive mutations (E1202G, T1208I, and K1846T). Eight dilutions of non-transfected antimiR oligonucleotide (bracketing the calculated EC50) were evaluated in triplicate on duplicate sets of three plates with five dilutions of each of the control compounds (bracketing the calculated EC50). One set of plates was used for the determination of cellular toxicity and the other set of plates was used for the determination of anti-viral efficacy. The efficacy and toxicity results was quantified with firefly luciferase activity and XTT dye reduction, respectively, and the results of the assay is imported into the Prichard and Shipman MacSynergy II software program. The MacSynery II analysis includes calculation of the dose response of the two (or more) compounds when used alone followed by calculation of the expected additive level of antiviral inhibition or toxicity when the compounds are used together based on the individual dose response curves. The expected level of activity at each of the concentration data points was compared to the experimentally determined antiviral activity in the assay. The expected activity was subtracted from the realized activity, yielding a negative, zero or positive value. These values are plotted as a three dimensional representation of the data and the result is reported as a two-factor value, expressing the combined average above the expected level of activity (synergy volume) and the combined average below the expected level of activity (antagonism volume). Combination analysis was performed two or more times for each pair of test compound and control substance.
(§2) The reporter cell line Huh-luc/neo-ET was obtained from Dr. Ralf Bartenschlager (Department of Molecular Virology, Hygiene Institute, University of Heidelberg, Germany) by ImQuest BioSciences. This cell line harbors the persistently replicating 1389luc-ubi-neo/NS3-3′IET replicon containing the firefly luciferase gene-ubiquitinneomycin phosphotransferase fusion protein and EMCV IRES driven NS3-5B HCV coding sequences containing the ET tissue culture adaptive mutations (E 1202G, T12081, and KI846T). A stock culture of the Huh-luc/neo-ET was expanded by culture in DMEM supplemented with 10% FBS, 2 mM glutamine, penicillin (100 IU/mL)/streptomycin (100 f·Ig/mL) and IX nonessential amino acids plus I mg/ml G418. Prior to plating, the cells were split 1:4 and cultured for two passages in the same medium plus 250 f·Ig/mL G418. The cells were treated with trypsin and enumerated by staining with trypan blue and seeded into 96-well tissue culture plates at a cell culture density 5.0×10^3 cells per well in a volume of 85 f·IL per well and incubated at […] in an environment of 5% CO2 for 24 hours. Six plates were established for the determination of combination efficacy (EC50) and cytotoxicity (TC50) for each of the compound combinations (three plates each for efficacy and toxicity). Following the 24 hour incubation, eight 2-fold serial dilutions of SPC3649 in cell culture medium without G418 were prepared (final in well high test concentration of 1.20 μM to 2.40 μM) and added to the cells and five 2-fold or 5-fold serial dilutions of control compounds in cell culture medium without G418 were prepared and added to the cells.

Huh-luc/neo-ET cells = experiment: Cellular toxicity by XTT dye reduction in Huh-luc/neo-ET cells
Method: as §1
as §2, with “Following the 24 hour incubation, eight 2-fold serial dilutions of SPC3649 in cell culture medium without G418 were prepared (final in well high test concentration of 1.20 μM to 2.40 μM) and added to the cells and five 2-fold or 5-fold serial dilutions of control compounds in cell culture medium without G418 were prepared and added to the cells.” left out

[2] = test system: HCV genotype 1b replicon NS5B M423I; type: cell-based; conditions: EC50 mutant / EC50 wild-type; mean of two experiments (individual values)
Method: (§3) The in vitro antiviral of miravirsen was evaluated against wild-type HCV genotype 1b replicon and HCV genotype 1b replicons constructed to contain key amino acid substitutions in NS3 protease (A156T, R155K), NS5B polymerase (S282T, M423I) and NS5A protein (Y93H) in transient transfection assays utilizing Huh 7 cells. […] Huh 7 cells were transfected with either the wild-type or the mutant RNA constructs by electroporation. Luciferase activity was measured 72 hours after compound treatment and EC50 values determined from dose-response curves. Fold resistance was expressed as the ratio of the EC50 for mutant HCV replicon to the EC50 for wild-type HCV replicon.
(§4) The in vitro antiviral of miravirsen was evaluated against wild-type HCV genotype 1b replicon and HCV replicons constructed to contain key amino acid substitutions in NS3 protease (A156T, R155K), NS5B polymerase (S282T, M423I) and NS5A protein (Y93H) in transient transfection assays. […] Huh 7 cells were transfected with either the wild type or the mutant RNA constructs by electroporation. Luciferase activity was measured 72 hours after compound treatment and EC50 values determined from dose-response curves. Fold resistance was expressed as the ratio of the EC50 for mutant HCV replicon to the EC50 for wild-type HCV replicon. Results are expressed as the mean of two individual experiments. In an initial set of experiments, the standard protocol was modified by adding compounds 24 hours after electroporation. […] In a third experiment cells were pretreated with miravirsen for 24 hours before electroporation with wild-type RNA constructs to determine if preincubation could result in increased miravirsen antiviral activity.

[3] = test system: Huh-luc/neo-ET HCV genotype Ib replicon cells; type: cell-based; conditions: selection with G418, 28 days
Method: Cell culture and Assay setup: The reporter cell line Huh-luc/neo-ET was obtained and prepare as described previously. Cells were plated into 10 cm tissue culture dishes at a density of 3×10^5 cells per plate in culture medium containing 250 μg/ml G418 and incubated for 24 hours at 37° C. in an environment of 5% C02. Following the 24 hour incubation, dilutions of SPC3649, SPC4729, or telaprevir were prepared in cell culture medium (as above) with 750 μg/ml G418. Each of the dilutions was added to duplicate plates and the plates were incubated at 37° C. in an environment of 5% CO^2. Two additional plates received cell culture medium with 750 μg/ml G418 as a no-treatment control. […] The final concentration of SPC4729 was 10.0 μM. […] Following 28 days of passage, one set of dishes was stained with crystal violet and the other set of plates was utilized for expansion and establishment of resistant cell culture stocks.
Huh-luc/neo-ET HCY genotype Ib replicon cells were cultured under selective pressure in the presence of 750 μg/mL G4 I8 with and without four independent fixed concentrations of SPC3649 anti-miR oligonucleotide, or telaprevir, or one concentration of scrambled oligonucleotide SPC4729 for 28 days in tissue culture plates. Duplicate tissue culture dishes were established and maintained for each culture condition. Medium was replaced bi-weekly during the 28 days of culture and the cells were split at the time of medium replenishment to maintain a confluent cell culture monolayer. Following four weeks in culture, cells were either fixed with methanol and stained with crystal violet or expanded for subsequent phenotypic and genotypic characterization.

[4] = test system: HCV genotype 1b replicon NS3 A156T; type: cell-based; conditions: EC50 mutant / EC50 wild-type; mean of two experiments (individual values)
Method: as §3, §4

[5] = test system: HCV genotype 1b replicon NS3 R155K; type: cell-based; conditions: EC50 mutant / EC50 wild-type; mean of two experiments (individual values)
Method: as §3, §4

[6] = test system: HCV genotype 1b replicon NS5A Y93H; type: cell-based; conditions: EC50 mutant / EC50 wild-type; mean of two experiments (individual values)
Method: as §3, §4

[7] = test system: HCV genotype 1b replicon NS5B S282T; type: cell-based; conditions: EC50 mutant / EC50 wild-type, mean of two experiments (individual values)
Method: as §3, §4

[8] = second drug in combination with miravirsen (SPC3649), 95% confidence interval, median (≧3 experiments) or individual values
[9] = second drug in combination with miravirsen (SPC3649), overall
[10] = second drug in combination with miravirsen (SPC3649), 95% confidence interval, median or individual values
[11] = in combination with ribavirin, 95% confidence level

Question: How did the “Efficacy, Antagonism vol” value [1, 8] turn out when CC(C)(C)C#Cc1cc(N(C(=O)[C@H]2CC[C@H](C)CC2)[C@H]2CC[C@H](O)CC2)c(C(=O)O)s1 [VX-222] was run?
Answer: The value was −34.4 μM^2% and −4.27 μM^2% and 4.81/−34.44; μM^2% and 0.82/−4.27 μM^2%.

Question: And the Interaction [1, 9]?
Answer: Its Interaction is “Positive”.

Question: And the “Cytotoxicity, Antagonism vol” value (Huh-luc/neo-ET cells; [10])?
Answer: Its value is −28.6 μM^2% and 0 μM^2%.

Question: And the “Cytotoxicity, Synergy vol” value (Huh-luc/neo-ET cells; [10])?
Answer: Its value is 0 μM^2%.

Question: What about the “fold change in susceptibility, NS5B M423I” value [2] of the same compound?
Answer: The value was 4.4 fold and 4.4 (3.6, 5.2) fold.

Question: Which Interaction [1] does the source give for NC(=O)c1ncn([C@@H]2O[C@H](CO)[C@@H](O)[C@H]2O)n1 [Ribavirin, 1-[(2R,3R,4S,5R)-3,4-dihydroxy-5-(hydroxymethyl)oxolan-2-yl]-1H-1,2,4-triazole-3-carboxamide] here?
Answer: The Interaction was “Positive”.

Question: And the antagonism volume [1]?
Answer: Its antagonism volume is −292.6 μM^2%.

Question: What about the “interaction in individual assay replicates” value [1] of the same compound?
Answer: Its value is “additive interaction; also recorded: highly antagonistic interaction”.

Question: How did the “Efficacy, Synergy vol” value [1] turn out when “5′-Ts.^ocsAs.^otsas.^mCs.^oTs.^oastsAs.^otsGs.^oas.^mCs.^oA.^o-3′ [SPC4729]” was run?
Answer: The value was 0.00/−177.6 μM^2%.

Question: And the overall antiviral interaction ([1]; in combination with ribavirin)?
Answer: Its overall antiviral interaction is “antagonistic”.

Question: And the “Efficacy, Antag Vol” value ([1]; in combination with ribavirin, 95% confidence level, individual values)?
Answer: Its value is 0.00/−177.6 μM^2%.

Question: What about the “impact of combination on in vitro cytotoxicity” value (Huh-luc/neo-ET cells; in combination with ribavirin) of the same compound?
Answer: The value was “slight higher cytotoxicity”.

Question: And the “Cytotoxicity, Antag Vol” value (Huh-luc/neo-ET cells; [11])?
Answer: Its value is −44.3 μM^2%.

Question: And the “Cytotoxicity, Synergy vol” value (Huh-luc/neo-ET cells; [11])?
Answer: The value was 0.00 μM^2%.

Question: What about the “rate of cell expansion” value [3] of the same compound?
Answer: Its value is “did not decrease the rate of cell expansion”.

Question: With C[C@@]1(O)[C@H](O)[C@@H](CO)O[C@H]1n1ccc(N)nc1=O [2′-C-Methylcytidine, 2′-C-methylcytidine] as the compound, how does the “interaction in individual assay replicates” value ([1]; in combination with SPC 3649, part of the replicates, listed as 2-methyl cytidine) read?
Answer: Its value is “positive interactions; also recorded: slightly antagonistic interaction”.

Question: What about the “Efficacy, Antagonism vol” value [1, 8] of the same compound?
Answer: Its value is −27.6 μM^2%.

Question: And the “Efficacy, Synergy vol” value [1, 8]?
Answer: The value was 0 μM^2%.

Question: What about the “Efficacy, Synergy vol” value ([1]; second drug in combination with miravirsen (SPC3649), 95% confidence interval, median (≧3 experiments) or individual values, listed as 2-methyl cytidine) of the same compound?
Answer: The value was 0.0 μM^2%.

Question: What about the Interaction [1, 9] of the same compound?
Answer: The Interaction was “Positive”.

Question: And the Interaction ([1]; second drug in combination with miravirsen (SPC3649), overall, listed as 2-methyl cytidine)?
Answer: The Interaction was “positive interaction”.

Question: What about the “Cytotoxicity, Antagonism vol” value (Huh-luc/neo-ET cells; [10]) of the same compound?
Answer: Its value is −0.67 μM^2%.

Question: And the “Cytotoxicity, Synergy vol” value (Huh-luc/neo-ET cells; [10])?
Answer: Its value is 0 μM^2%.

Question: And the “fold change in susceptibility, NS3 A156T” value [4]?
Answer: Its value is 0.9 (1.0, 0.8) fold.

Question: And the “fold change in susceptibility, NS3 R155K” value [5]?
Answer: Its value is 0.8 (1.0, 0.6) fold.

Question: What about the “fold change in susceptibility, NS5A Y93H” value [6] of the same compound?
Answer: The value was 1.0 (1.2, 0.8) fold.

Question: And the “fold change in susceptibility, NS5B M423I” value [2]?
Answer: The value was 1.0 (0.9, 1.1) fold.

Question: What about the “fold change in susceptibility, NS5B S282T” value ([7]; listed as 2′Me-C) of the same compound?
Answer: The value was 42.8 fold and 45.8 fold.

Question: What about the “fold change in susceptibility, NS5B S282T” value ([7]; listed as 2′Me—C) of the same compound?
Answer: Its value is 45.8 (49.3, 42.3) fold.

Question: How did the “Efficacy, Antagonism vol” value [1, 8] turn out when COC(=O)N[C@H](C(=O)N1CCC[C@H]1c1nc(-c2ccc(-c3ccc(-c4c[nH]c([C@@H]5CCCN5C(=O)[C@@H](NC(=O)OC)C(C)C)n4)cc3)cc2)c[nH]1)C(C)C [BMS 790052, Dimethyl (2S,2′S)-1,1′-((2S,2′S)-2,2′-(4,4′-(biphenyl-4,4′-diyl)bis(1H-imidazole-4,2-diyl))bis(pyrrolidine-2,1-diyl))bis(3-methyl-1-oxobutane-2,1-diyl)dicarbamate] was run?
Answer: Its value is −25.5 μM^2% and −0.1 μM^2% and 0/−24.5; μM^2% and 18.46/−0.06 μM^2%.

Question: And the Interaction [1, 9]?
Answer: The Interaction was “Positive”.

Question: What about the “Cytotoxicity, Antagonism vol” value (Huh-luc/neo-ET cells; [10]) of the same compound?
Answer: The value was −21.9 μM^2%.

Question: What about the “Cytotoxicity, Synergy vol” value (Huh-luc/neo-ET cells; [10]) of the same compound?
Answer: The value was 0 μM^2%.

Question: And the “fold change in susceptibility, NS5A Y93H” value [6]?
Answer: The value was 29.9 fold and 29.9 (32.7, 27.0) fold.
